Results published in the NIST ThermoML archive (doi:10.1016/j.fluid.2009.12.002).
± gives the expanded uncertainty stated by the source.

Experiments:
[1] = for mass density: Vibrating tube method; for vapor or sublimation pressure: isothermal bubble-point pressure
[2] = xn = mol fraction of the nth substance listed; conditions: Liquid, Vibrating tube method

Row | Compound | mass density ([1]; 333.15 K, Gas) [kg/m3] | mass density ([1]; 333.15 K, Liquid) [kg/m3] | vapor or sublimation pressure ([1]; 333.15 K, Liquid) [kPa] | mass density ([1]; 343.15 K, Gas) [kg/m3] | mass density ([1]; 343.15 K, Liquid) [kg/m3] | vapor or sublimation pressure ([1]; 343.15 K, Liquid) [kPa] | mass density ([1]; 353.15 K, Gas) [kg/m3] | mass density ([1]; 353.15 K, Liquid) [kg/m3] | vapor or sublimation pressure ([1]; 353.15 K, Liquid) [kPa] | mass density ([2]; 333.15 K, x1 = 1) [kg/m3] | mass density ([2]; 343.15 K, x1 = 1) [kg/m3] | mass density ([2]; 353.15 K, x1 = 1) [kg/m3] | mass density ([2]; 333.15 K, x2 = 0) [kg/m3] | mass density ([2]; 343.15 K, x2 = 0) [kg/m3] | mass density ([2]; 353.15 K, x2 = 0) [kg/m3]
1 | Cc1cccc(C)c1 [1,3-dimethylbenzene] | 0.2519 ± 0.1 | 829.305 ± 0.24 | 6.58 ± 0.03 | 0.3779 ± 0.1 | 820.443 ± 0.24 | 10.17 ± 0.03 | 0.5457 ± 0.1 | 811.602 ± 0.24 | 15.12 ± 0.04 | – | – | – | – | – | –
2 | Cc1ccccc1C [1,2-dimethylbenzene] + CNC=O | – | – | – | – | – | – | – | – | – | 845.839 ± 0.23 | 837.399 ± 0.23 | 828.528 ± 0.24 | – | – | –
3 | Cc1cccc(C)c1 [1,3-dimethylbenzene] + CNC=O | – | – | – | – | – | – | – | – | – | 829.305 ± 0.24 | 820.443 ± 0.24 | 811.602 ± 0.24 | – | – | –
4 | CNC=O [N-methylformamide] + Cc1ccc(C)cc1 | – | – | – | – | – | – | – | – | – | – | – | – | 967.461 ± 0.23 | 958.765 ± 0.23 | 949.98 ± 0.23
5 | CNC=O [N-methylformamide] + Cc1ccccc1C | – | – | – | – | – | – | – | – | – | – | – | – | 967.461 ± 0.23 | 958.765 ± 0.23 | 949.98 ± 0.23
6 | CNC=O [N-methylformamide] | – | 967.461 ± 0.23 | 0.37 ± 0.02 | – | 958.765 ± 0.23 | 0.67 ± 0.02 | – | 949.98 ± 0.23 | 1.15 ± 0.02 | – | – | – | – | – | –
7 | Cc1ccc(C)cc1 [1,4-dimethylbenzene] + CNC=O | – | – | – | – | – | – | – | – | – | 825.539 ± 0.24 | 816.664 ± 0.24 | 807.649 ± 0.24 | – | – | –
8 | CNC=O [N-methylformamide] + Cc1cccc(C)c1 | – | – | – | – | – | – | – | – | – | – | – | – | 967.461 ± 0.23 | 958.765 ± 0.23 | 949.98 ± 0.23
9 | Cc1ccc(C)cc1 [1,4-dimethylbenzene] | 0.262 ± 0.1 | 825.539 ± 0.24 | 6.85 ± 0.03 | 0.3903 ± 0.1 | 816.664 ± 0.24 | 10.5 ± 0.03 | 0.5636 ± 0.1 | 807.649 ± 0.24 | 15.61 ± 0.04 | – | – | – | – | – | –
10 | Cc1ccccc1C [1,2-dimethylbenzene] | 0.2087 ± 0.1 | 845.839 ± 0.23 | 5.45 ± 0.02 | 0.3149 ± 0.1 | 837.399 ± 0.23 | 8.47 ± 0.03 | 0.4587 ± 0.1 | 828.528 ± 0.24 | 12.71 ± 0.03 | – | – | – | – | – | –
